The values that follow come from PubChem BioAssay (NCI).

“And” between values parts separate entries of the source, which are not always exact repeats. Identical values can stand only once.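 Test compounds were applied to cells in 96-well plates for 48 hours at 5 doses. Abbreviation: GI50, concentration required for 50% inhibition of growth. Definition used: TGI = concentration required for complete inhibition of growth.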

The assay concerns MDA-MB-435. Description: inhibition of tumour cell growth, NCI panel, 48 h.
Turning to `COc1ccc(/C=C(\C#N)n2nnc3c(F)cccc32)cc1`, the GI50 is 0.052 µM and the TGI is 0.371 µM. For the molecule `C=CCN1CC(=O)N2[C@@H](Cc3ccc(O)cc3F)C(=O)N(Cc3cccc(N4CC(N5CCN(CC)CC5)C4)n3)C[C@@H]2N1C(=O)NCc1ccccc1`, the GI50 was 0.102 µM and the TGI was greater than 100 µM. For `COC(=O)c1cncc(/C=C/c2c(C)cc(O)cc2C)c1`, the GI50 is 3.42 µM and the TGI was 11.7 µM. Consider `COc1ncnc(NS(=O)(=O)c2ccc(N=C3C(=O)N(CN4CCN(c5c(F)cc6c(=O)c(C(=O)O)cn(C7CC7)c6c5OC)CC4C)c4ccc(Br)cc43)cc2)c1OC` (configuration not stated), for which the GI50 was 7.07 µM and the TGI came out at 33.2 µM. As to `COC(=O)[C@H]1CCCN1C(=O)[C@H]1CCCN1C(=O)[C@@H](Cc1c[nH]c2ccccc12)NC(=S)Nc1cc(C(F)(F)F)cc(C(F)(F)F)c1`, the GI50 is 1.8 µM and the TGI stood at 3.58 µM. As for `O=C1OC(C(O)CO)C(O)=C1O` (configuration not stated), the GI50 was 203 µM and 208 µM; the TGI was 372 µM and 374 µM. As to `CCN(CC)CCCCCCNc1cc(OC)cc2cccnc12`, the GI50 was 1.84 µM and the TGI was found to be 3.63 µM.

With `N#CC1=C(/N=C/c2ccccc2)Oc2c(ccc3ccccc23)C1c1ccccc1` (configuration not stated), the GI50 is 0.227 µM and the TGI worked out at 0.573 µM. In the same order, the values of `O=C(CCCCCCN1CC(=O)N2[C@@H](c3ccc(Cl)c(Cl)c3)c3[nH]c4ccccc4c3C[C@H]2C1=O)NO` are 3.13 µM and 8.06 µM. For `COc1cc(/C=C/C(=O)c2cccc(-n3cc(-c4ccc(Cl)cc4)[nH]c3=O)c2)cc(OC)c1OC` the same measures were 3.63 µM and greater than 100 µM. In the same order, the values of `CSc1nc2sc3c(c2c(=O)n1-c1ccc(C(C)C)cc1)CCC(=O)C3` are 1.85 µM and 3.71 µM. Regarding `CCc1cccc(C)c1NC(=O)c1sc2nc3c(cc2c1N)C(=O)CCC3`, the GI50 was 0.159 µM. `COc1cc2nc(-c3cc(F)ccc3O)nc(N[C@@H]3CNC[C@H]3C(C)(C)O)c2cc1OC`: the GI50 is 1.65 µM and the TGI was found to be 3.03 µM. For `c1ccc2c(c1)Nc1ccncc1S2` the same measures were 23.2 µM and greater than 100 µM. For `COC1C(O)C(CO)OC(OC2C(O)COC(OC3C(C)OC(OC4C(O[C@H]5CC[C@@]6(C)C(CC=C7[C@H]6CCC68C(=O)O[C@@](C)(CCCC(C)C)[C@H]6[C@@H](OC(C)=O)C[C@@]78C)C5(C)C)OCC(OS(=O)(=O)O)C4O)C(OC4OCC(O)C(O)C4O)C3O)C2O)C1O` (some centres not stated) the same measures were 0.196 µM and 0.532 µM. On to `N#CCCN1C/C(=C/c2ccc(Cl)cc2)C(=O)/C(=C/c2ccc(Cl)cc2)C1`, for which the GI50 is 1.37 µM and the TGI turned out to be 2.99 µM. For `CCCCCCNC(=O)Oc1ccc(/C(=C(\C)c2ccc(Cl)cc2)c2ccc(OCCN3CCCCC3)cc2)cc1` the same measures were 3.73 µM and 7.98 µM. In the case of `Cc1cc(N(CCCNc2ccnc3cc(Cl)ccc23)Cc2ccco2)nc(N2CCN(C)CC2)n1`, the GI50 was 1.69 µM and the TGI was 3.23 µM. Consider `Nc1nc(Nc2ccccc2SSc2ccccc2Nc2nc(N)nc(C(Cl)(Cl)Cl)n2)nc(C(Cl)(Cl)Cl)n1`, for which the GI50 was 6.39 µM and the TGI worked out at 24.9 µM. In the same order, the values of `NS(=O)(=O)c1ccc(-c2cc3ccncc3cc2OCc2ccccc2)cc1` are greater than 25 µM and greater than 25 µM. In the same order, the values of `Cc1ccc(-c2nc([P+](c3ccccc3)(c3ccccc3)c3ccccc3)c(S(=O)(=O)c3ccc(C)cc3)o2)cc1` are 1.56 µM and 3.04 µM.

Turning to `O=C1c2sccc2-c2cccc3cccc1c23` (tested in a mixture with another compound), the TGI is greater than 100 µM.

For `N#CCN1CCn2c1nsc2=S`, the GI50 is greater than 100 µM and the TGI was greater than 100 µM.

For `O=C(Nc1cccc(-n2cc(-c3ccncc3)c(-c3cc(O)cc(Cl)c3)n2)c1)c1cc(C(F)(F)F)cc(C(F)(F)F)c1`, the GI50 is 3.16 µM and the TGI is greater than 100 µM. For `C[C@]12CC[C@@H]3c4cc(OC(F)F)c(OS(N)(=O)=O)cc4CC[C@H]3[C@@H]1CC[C@@H]2O` the same measures were 0.209 µM and 0.603 µM. Consider `Oc1ccc(C(c2ccc(O)cc2)c2ccc(Br)cn2)cc1`, for which the GI50 was 20 µM and the TGI is 65.9 µM. For `Cc1cc(C)nc(SC2=C(Nc3cc(Cl)ccc3O)C(=O)N(Cc3ccccc3)C2=O)n1`, the GI50 was 62.2 µM and the TGI was greater than 160 µM.
